Measured values from patent US9119821B2, “Use of methionine sulfoximine to treat acute liver failure and other diseases caused by an inflammatory cytokine response” (priority 2010, dated 2015).

Columns and labels:
MLP 29 cells = test: Flow cytometry of apoptosis induced by TNF-α plus actinomycin D; type: cell-based, mouse; conditions: 9 mM, one hour preincubation, then TNF-α plus actinomycin D for 10 hours
Protocol: Output of multiparametric FACS analyses. Mouse liver progenitor cells, MLP 29, are incubated for one hour with either no addition (first lane, FIG. 3C(a)), 9 mM MSO (second lane, FIG. 3C(b)), or 9 mM BSO (third lane, FIG. 3C(c)), then exposed for 10 hours to either no addition—(BAS, first column), TNF-α plus actinomycin D (second column), or actinomycin D alone (third column). Viable cells (V) are delimited by the quadrant. Apoptotic cells display mitochondrial depolarization (reduced TMRM staining) and/or expose phosphatidylserine on their surface (increased Annexin V-FITC staining). Propidium iodide-positive, i.e. dead cells (PI), are evaluated on a PI vs TMRM diagram (not shown); these cells are excluded from the reported plots, but the percentage of propidium iodide positive (i.e. dead) cells is shown in each box (PI), as is the percentage of viable cells (V);
Samples were analyzed on a FACSCalibur flow cytometer (Becton Dickinson, San Diego, Calif.). Data acquisition was performed using CellQuest software and data analysis with WinMD1 software. Each experiment was repeated at least four times.

glutamine synthetase = molecular target: T1, glutamine synthetase (Mus musculus, UniProt P15105); test: Glutamine synthetase activity in liver extracts of treated mice; type: in vivo; conditions: 890 mg/kg IP 3 hours prior to LPS/D-GalN
T1 construct: liver homogenates were prepared from liver tissue excised and immediately homogenized; from tissue; host or cells: mouse liver homogenate supernatant
Protocol: Tissue and plasma were collected from male mice, which were divided into two groups. One group was injected with saline three hours prior to LPS/D-GalN injections. The second group was given MSO three hours prior to being injected with LPS/D-GalN. Control mice (t=0) were treated with MSO or saline for 3 hours and then euthanized (not exposed to LPS/D-GalN). After LPS/D-GalN injection at time zero, tissue and plasma samples were collected at one-hour time intervals from 1 to 5 hours.
To analyze enzyme activities liver homogenates were prepared from liver tissue excised and immediately homogenized in ice-cold buffer consisting of 250 mM sucrose, 10 mM Tris and 0.1 mM EGTA with protease inhibitor cocktail (Sigma #P8340). The homogenized tissue was centrifuged at 2375×g for 5 min. The tissue supernatant fraction was frozen on dry ice and stored at −80° C.
Glutamine synthetase was assayed as described by Meister, A. Glutamine synthetase from mammalian tissues. […] The reaction with the substrates glutamine and hydroxylamine was stopped using ferric chloride stop solution (0.37 M FeCl3, 0.67 M HCl, 0.20 M TCA) and the colorimetric product formed—γ-glutamyl hydroxamate—was measured at 535 nm. The absorbance values were converted to activities by comparison to a standard curve of pure glutamyl hydroxamate (a generous gift from Arthur J. Cooper, Department of Biochemistry and Molecular Biology, New York Medical College).

GGCS = molecular target: T2, GGCS (Homo sapiens, UniProt P48506); conditions: known from the literature; cited from earlier work
T2 sequence (P48506 1-637): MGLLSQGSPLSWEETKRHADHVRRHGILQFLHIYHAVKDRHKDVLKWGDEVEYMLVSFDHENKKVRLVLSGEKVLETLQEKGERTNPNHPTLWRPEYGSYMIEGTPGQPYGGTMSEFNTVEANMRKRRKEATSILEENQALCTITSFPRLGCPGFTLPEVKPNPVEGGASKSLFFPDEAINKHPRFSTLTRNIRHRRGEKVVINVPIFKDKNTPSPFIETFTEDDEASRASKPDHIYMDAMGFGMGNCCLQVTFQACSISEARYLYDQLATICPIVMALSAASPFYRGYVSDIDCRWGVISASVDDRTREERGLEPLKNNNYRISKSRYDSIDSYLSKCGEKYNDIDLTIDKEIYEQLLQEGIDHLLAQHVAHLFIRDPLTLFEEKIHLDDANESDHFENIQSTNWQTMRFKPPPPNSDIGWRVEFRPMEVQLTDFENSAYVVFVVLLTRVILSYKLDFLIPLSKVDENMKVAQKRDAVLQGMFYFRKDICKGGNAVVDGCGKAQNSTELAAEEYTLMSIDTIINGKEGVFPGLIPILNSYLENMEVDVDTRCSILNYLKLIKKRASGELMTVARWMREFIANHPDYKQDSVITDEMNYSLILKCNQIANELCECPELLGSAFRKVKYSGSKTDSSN

[1] = system: CD1 mice treated with LPS/D-GalN; test: Survival of mice with LPS/D-GalN induced acute liver failure; type: in vivo, mouse; conditions: 890 mg/kg IP 3 hours prior to LPS/D-GalN
Description: Six to eight week old CD1 mice are obtained from Charles River. Animals were housed in Wayne State University or University of Padova, Vallisneri Interdepartmental Complex animal quarters until the time of the experiment. Food was withdrawn the night before the day of the experiment. All experiments were approved by the Animal Investigation Committee of Wayne State University or by the Authority of the University of Padova and authorized by the Italian Ministry of Health.
Animals were divided into two groups. Group one animals consisted of both male and female mice injected with LPS and D-GalN to induce hepatic failure. Survival was monitored post LPS/D-GalN administration and the time of injection was considered to be zero hour (t=0). Group two animals consisted of mice injected with MSO three hours prior to LPS and D-GalN administration. […] […] For analysis of the effect of MSO treatment on the cell death pathway activated by the Fas ligand, mice were pre-treated with MSO as described above, and at time zero were injected with Jo2 antibody ([…]).
Animals were monitored continuously post LPS/D-GalN or Jo2 administration. […] The time of death was recorded as hours after LPS/D-GalN injection. Fisher's exact test was used to determine two-tailed p values for the statistical between the treated and untreated groups.

T1 sequence (P15105 2-373 limits assumed): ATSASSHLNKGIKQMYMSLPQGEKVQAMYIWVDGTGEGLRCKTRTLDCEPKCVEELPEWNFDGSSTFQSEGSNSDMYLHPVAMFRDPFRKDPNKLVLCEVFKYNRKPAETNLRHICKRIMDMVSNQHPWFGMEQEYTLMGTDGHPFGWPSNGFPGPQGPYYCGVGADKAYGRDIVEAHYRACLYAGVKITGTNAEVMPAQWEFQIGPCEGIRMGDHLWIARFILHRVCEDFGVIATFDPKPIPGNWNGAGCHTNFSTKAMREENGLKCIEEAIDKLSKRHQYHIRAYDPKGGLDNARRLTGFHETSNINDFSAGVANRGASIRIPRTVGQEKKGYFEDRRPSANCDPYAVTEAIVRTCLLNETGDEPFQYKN

Q: What does the source list for CCCCS(=N)(=O)CCC(N)C(=O)O (centres unmarked) [BSO, buthionine sulfoximine, reference compound]?
A: rescue of cells from apoptosis induced by TNF-α (MLP 29 cells): neither MSO nor BSO could rescue cells; effect on glutamine synthetase activities (glutamine synthetase): no effect; inhibition of GGCS, effectiveness relative to MSO (GGCS): 100 times; effect on survival of mice treated with LPS/D-GalN [1]: no effect; survival ([1]; 3 out of 20 treated mice survived): 15%
